Source: patent publication US20220096592A1, “PIC1 VARIANTS WITH IMPROVED SOLUBILITY AND METHODS OF USING THE SAME” (priority 2019, published 2022)
“Also recorded” adds a separate entry of the source. Where a SMILES comes first, the peptide text is derived from it. [ ]: non-standard residue; d: D form. Sar = CNCC(=O)O

What was measured:
purified C1q = purified C1q (UniProt P02745); test: cell-based or functional assay
myeloperoxidase (MPO) = target: T1, myeloperoxidase (MPO) (Homo sapiens, UniProt P05164); test: MPO peroxidase activity, TMB-based assay; assay type: biochemical; settings: for MPO inhibition, in words: dose-response and half-maximal inhibition, FIG. 2A, 2B
T1 construct: purchased Lee BioSolutions (Maryland Heights, Mo.)
Procedure: PIC1 and sarcosine variants were diluted to 25 mg/ml and then serially titrated in a 96 well plate at a volume of 0.02 ml. Myeloperoxidase (MPO) was diluted to 20 μg/ml and 0.02 ml was added to the titrated peptides. TMB (3,3′,5,5′-tetramethylbenzidine) (0.1 ml) was added to each well for 2 minutes, followed by 0.1 ml of 2.5 N H2SO4 for another 2 minutes, and then read on a 96 well plate reader (BioTek) at 450 nm.
In this assay, the variants were tested for MPO inhibition over a range of concentrations. Strong MPO inhibition was found for all variants with the exception of the no-cysteine variant (C9,10).

[1] = test system: antibody-initiated complement activation (ABO incompatible hemolysis); settings: for complement inhibition overall, in words: both hemolytic complement inhibition assays; for inhibition of ABO incompatible hemolysis, in words: peptides at 1.8 mM, compared with PA-dPEG24, FIG. 1A
Procedure: (§1) For hemolytic complement assays, human red blood cells (RBCs) from type AB donors were purified, washed and standardized to 1×10^9 cells/ml, as previously described. Human sera from type 0 donors at a 20% final concentration was combined with […] PIC1 or sarcosine variant peptides, and the volume was brought up to 0.15 ml with GVBS^++ and […] RBCs. For factor B-depleted sera hemolytic assays, a final of 0.005% factor B depleted sera was incubated with […] PIC1 or sarcosine variant peptides with 0.1 ml antibody-sensitized sheep red blood cells (EA) in a final volume of 0.75 ml GVBS^++. The samples were incubated for one hour at 37° C. Then, 1.0 ml of GVBS^−− was added to the factor B-depleted samples to stop the reaction. The samples were spun at 3,000 rpm for 5 minutes. The supernatant was then collected and read at 412 nm. An analysis was performed to represent the values as a percent of the positive control, which consists of human 0 sera and AB red blood cells in GVBS^++ buffer.
(§2) An evaluation of the extent to which the peptide variants inhibit antibody-initiated complement activation was performed. The peptide variants were tested in the following two hemolytic assays: (i) an ABO incompatibility ex vivo assay and (ii) a classical pathway CH50-type assay in factor B-depleted sera.
In the ABO incompatibility hemolytic assay, purified erythrocytes from a ‘type AB+’ donor were incubated with sera from a ‘type 0’ subject containing anti-A and anti-B antibodies; peptides were tested at 1.8 mM.

MPO = target: T2, MPO (Homo sapiens, UniProt P05164); test: plate-based assay of binding to solid phased MPO; settings: binding curves and half-maximal binding, FIG. 2C, 2D
T2 construct: purchased Lee BioSolutions (Maryland Heights, Mo.)
Procedure: (§3) The plates were washed with PBST (phosphate buffered saline+0.1% Tween) and then blocked with 1% gelatin/PBS for 2 hours at room temperature. After washing, the plates were incubated with PA or sarcosine variant peptides starting at 2.5 mg/ml and then serially diluted in 1% gelatin/PBS for 1 hour at room temperature. After washing, the plates were probed with rabbit anti-PA (developed with Cocalico Biologicals, Reamstown, Pa.) at 1:1000 in 1% gelatin/PBS for 1 hour, room temperature, followed by a goat anti-rabbit HRP (Sigma Aldrich, St Louis, Mo.) at 1:1,000 in 1% gelatin/PBS for 1 hour at room temperature with a washing step in between. Wells were developed using TMB substrate solution, stopped using 1 N H2SO4, and read at 450 nm in a plate reader.
A plate-based assay was performed to test the binding of the peptide variants to solid phased MPO. MPO binding was identified for all variants, except for C9,10.

[2] = Total Antioxidant Capacity (TAC) assay; settings: for total antioxidant capacity, in words: 0.03-0.25 mM, copper reducing equivalents, FIG. 4
Procedure: The TAC (Total Antioxidant Capacity) Assay (Cell Biolabs, Inc. San Diego, Calif.) was used to measure the antioxidant capacity of the sarcosine variants based on the reduction of copper (II) to copper (I). The assay was performed according to the recommended kit protocol.
Antioxidant activity was measured in copper reducing equivalents (CRE). Peptides were tested over a range of concentrations from 0.03-0.25 mM then compared to the standard.

[3] = test system: classical complement pathway; settings: for inhibition of classical pathway hemolysis, in words: peptides at 0.4 mM, compared with PA-dPEG24, FIG. 1B
Procedure: as §1, §2
A CH50-type hemolytic assay was then performed. with antibody-sensitized sheep erythrocytes, isolating the classical pathway by utilizing factor B-depleted sera; peptides were tested at 0.4 mM.

MPO heme ring = target: T3, MPO heme ring (Homo sapiens, UniProt P05164); test: MPO heme ring oxidative degradation (absorbance 300-550 nm); assay type: biochemical; settings: peptides at 3 mM, with H2O2, FIG. 3A-3H
T3 construct: purchased Lee BioSolutions (Maryland Heights, Mo.)
Procedure: In a 96 well plate, 0.025 ml of 1.7 mg/ml MPO was combined with 0.00125 ml of 0.5% H2O2 and 3 mM PIC1 or sarcosine variant peptides in a total volume of 0.125 ml PBS and left to incubate at room temperature for 2 minutes. Using a 96 well plate reader, the wells were scanned for absorbance from 300-550 nm to generate curves reflecting the iron state in the MPO heme ring, as previously reported.
The ability of the variants to prevent degradation of the heme ring in the MPO molecule was then evaluated. […] Degradation of the heme ring can be evaluated via spectrometric measurements of absorption of wavelengths from 300 to 550 nm.

C1q = target: T4, C1q (Homo sapiens, UniProt P02745+P02746+P02747); test: ELISA-type assay of peptide binding to C1q; settings: binding curves and half-maximal binding, FIG. 1C, 1D
T4 construct: purchased Complement Technology (Tyler, Tex.)
Procedure: as §3
Higher concentrations of DMSO interfere with the detecting reagents resulting in a partial binding curve.

[4] = test system: purified human neutrophils; test: NETosis assay (immune complex activated serum and H2O2; PicoGreen free DNA, fluorescence microscopy); assay type: cell-based; settings: peptides at 2 mM, FIG. 5A
Procedure: NETosis assays with immune complexes were performed as previously described. Briefly, normal human serum was stimulated with ovalbumin-antiovalbumin immune complexes in GVBS^++ for 30 minutes at 37° C. This mixture along with 0.05% H2O2 was then added to purified human neutrophils resuspended in RPMI with or without sarcosine variants (2 mM), allowing NETosis to occur. Quantitation of free DNA released from the neutrophils was performed using PicoGreen. Slides were stained with DAPI (Southern Biotech, Birmingham, Ala.). The following antibodies were used to visualize formation of NETs: • (i) mouse anti-elastase (Invitrogen, Carlsbad, Calif.) as a primary antibody with the secondary goat anti-mouse antibody Alexa Fluor 568 (Novus Biologicals, Centennial, Colo.) and • (ii) rabbit anti-histone H3 (Abcam, Cambridge Mass.) with goat anti-rabbit antibody Alexa Fluor 488 (Novus Biologicals). Fluorescence microscopy using an Olympus BX53 microscope was performed to visualize NETs.
The peptide variants were tested for inhibition of NETosis. In this assay, purified human neutrophils were stimulated with normal human serum activated with ovalbumin-antiovalbumin immune complexes and hydrogen peroxide. Free DNA expressed from the neutrophils was then measured in a PicoGreen assay. […] Direct visualization of neutrophil extracellular trap (NET) formation by fluorescence microscopy was used to confirm the above NETosis results with the 18 variant. Human neutrophils were purified and stimulated on glass slides then stained with DAPI to visualize DNA and probed with anti-neutrophil elastase (αNE) and anti-histone H3 (αhistone), as previously described. […] Fluorescence microscopy visualization of NETs confirmed the findings seen for quantitative measurements of free DNA.

[5] = summary grade of Table 4, key not given

T4 sequence (P02745 23-245): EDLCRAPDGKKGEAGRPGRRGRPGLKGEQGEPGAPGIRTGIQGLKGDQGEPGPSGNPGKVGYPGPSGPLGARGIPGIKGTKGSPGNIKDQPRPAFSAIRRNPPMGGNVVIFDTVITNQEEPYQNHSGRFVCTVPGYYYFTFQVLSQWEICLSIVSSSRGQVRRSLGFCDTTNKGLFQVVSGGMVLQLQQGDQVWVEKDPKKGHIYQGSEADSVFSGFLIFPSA
T4 sequence (P02746 28-253): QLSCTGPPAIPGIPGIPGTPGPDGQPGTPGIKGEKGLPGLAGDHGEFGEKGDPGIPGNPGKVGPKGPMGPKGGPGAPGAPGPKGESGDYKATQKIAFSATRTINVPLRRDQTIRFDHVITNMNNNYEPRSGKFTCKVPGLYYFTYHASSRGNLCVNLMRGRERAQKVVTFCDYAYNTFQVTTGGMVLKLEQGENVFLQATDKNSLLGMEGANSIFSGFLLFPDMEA
T4 sequence (P02747 29-245): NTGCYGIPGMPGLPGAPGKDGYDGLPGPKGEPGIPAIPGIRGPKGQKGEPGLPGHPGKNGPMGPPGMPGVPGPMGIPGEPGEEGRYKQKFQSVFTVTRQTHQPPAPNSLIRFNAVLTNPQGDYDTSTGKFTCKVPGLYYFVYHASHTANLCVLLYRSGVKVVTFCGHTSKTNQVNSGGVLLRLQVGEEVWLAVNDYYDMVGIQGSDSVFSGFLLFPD
T1 sequence (P05164 279-745 limits assumed): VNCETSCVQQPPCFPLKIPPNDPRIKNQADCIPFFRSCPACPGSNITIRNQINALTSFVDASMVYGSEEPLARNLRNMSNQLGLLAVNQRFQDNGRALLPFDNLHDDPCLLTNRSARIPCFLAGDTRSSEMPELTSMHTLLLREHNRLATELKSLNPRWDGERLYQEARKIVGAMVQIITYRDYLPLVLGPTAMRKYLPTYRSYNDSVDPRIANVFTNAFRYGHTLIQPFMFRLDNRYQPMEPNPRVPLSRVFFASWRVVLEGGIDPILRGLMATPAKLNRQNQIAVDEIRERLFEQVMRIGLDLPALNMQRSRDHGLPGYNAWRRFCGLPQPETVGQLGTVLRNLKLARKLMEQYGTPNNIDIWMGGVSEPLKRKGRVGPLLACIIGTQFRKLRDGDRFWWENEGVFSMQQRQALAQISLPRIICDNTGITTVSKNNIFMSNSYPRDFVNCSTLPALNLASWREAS
T1 sequence (P05164 165-273 limits assumed): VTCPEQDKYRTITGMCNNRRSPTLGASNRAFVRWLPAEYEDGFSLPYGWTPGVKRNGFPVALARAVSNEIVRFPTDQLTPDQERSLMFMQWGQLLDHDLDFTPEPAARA
T2 sequence (P05164 279-745 limits assumed): as the sequence (P05164 279-745 limits assumed) above
T2 sequence (P05164 165-273 limits assumed): as the sequence (P05164 165-273 limits assumed) above
T3 sequence (P05164 279-745 limits assumed): as the sequence (P05164 279-745 limits assumed) above
T3 sequence (P05164 165-273 limits assumed): as the sequence (P05164 165-273 limits assumed) above
Sequence of purified C1q (P02745 23-245 limits assumed, chain 1 of 3): as the sequence (P02745 23-245) above
Sequence of purified C1q (P02746 28-253 limits assumed, chain 2 of 3, further chain): as the sequence (P02746 28-253) above
Sequence of purified C1q (P02747 29-245 limits assumed, chain 3 of 3, further chain): as the sequence (P02747 29-245) above

Compound: PA-I8Sar (H2N-IALILEP(Sar)CCQERAA-OH) (peptide)
- inhibition of classical pathway hemolysis in factor B-depleted sera, more than PA-dPEG24 (peptides at 0.4 mM) (purified C1q): 75%

Compound: CC[C@H](C)[C@H](N)C(=O)N[C@@H](C)C(=O)N[C@@H](CC(C)C)C(=O)N[C@H](C(=O)N[C@@H](CC(C)C)C(=O)N[C@@H](CCC(=O)O)C(=O)N1CCC[C@H]1C(=O)N(C)CC(=O)N[C@@H](CS)C(=O)N[C@@H](CS)C(=O)N[C@@H](CCC(N)=O)C(=O)N[C@@H](CCC(=O)O)C(=O)N[C@@H](CCCNC(=N)N)C(=O)N[C@@H](C)C(=O)N[C@@H](C)C(=O)O)[C@@H](C)CC [I8, H2N-IALILEP(Sar)CCQERAA-OH] (H-IALILEP[Sar]CCQERAA-OH)
- MPO inhibition, in words (myeloperoxidase (MPO)): greatest potency among the different variants
- complement inhibition overall, in words [1]: superior inhibition of antibody-initiated complement activation and hemolysis compared with PA and other peptide variants
- inhibition of ABO incompatible hemolysis, in words [1]: inhibited ABO incompatible hemolysis to a greater extent than did the PA-dPEG24
- binding to MPO, in words (MPO): superior binding to MPO, as compared with the other sarcosine variants
- total antioxidant capacity, in words [2]: antioxidant capacity approaching that of PA-dPEG24
- inhibition of classical pathway hemolysis, in words [3]: superior activity
- inhibition of heme ring degradation, in words (MPO heme ring): near perfect preservation of the heme ring absorption spectrum
- binding to C1q, in words (C1q; listed as 18): superior binding to C1q as compared with the other peptides; also recorded: slightly superior to that of PA-dPEG24

Compound: CC[C@H](C)[C@H](N)C(=O)N[C@@H](C)C(=O)N[C@@H](CC(C)C)C(=O)N[C@H](C(=O)N[C@@H](CC(C)C)C(=O)N[C@@H](CCC(=O)O)C(=O)N1CCC[C@H]1C(=O)N[C@H](C(=O)N[C@@H](CS)C(=O)N[C@@H](CS)C(=O)N[C@@H](CCC(N)=O)C(=O)N[C@@H](CCC(=O)O)C(=O)N[C@@H](CCCNC(=N)N)C(=O)N[C@@H](C)C(=O)N[C@@H](C)C(=O)O)[C@@H](C)CC)[C@@H](C)CC [PA]
- binding to MPO, in words (MPO): near complete overlay of the 18 and PA curves
- binding to C1q, in words (C1q): superior binding to C1q as compared with the other peptides

Compound: CC[C@H](C)[C@H](N)C(=O)N[C@@H](C)C(=O)N[C@@H](CC(C)C)C(=O)N[C@H](C(=O)N[C@@H](CC(C)C)C(=O)N[C@@H](CCC(=O)O)C(=O)N1CCC[C@H]1C(=O)N[C@H](C(=O)N(C)CC(=O)N[C@@H](CCC(N)=O)C(=O)N[C@@H](CCC(=O)O)C(=O)N[C@@H](CCCNC(=N)N)C(=O)N[C@@H](C)C(=O)N[C@@H](C)C(=O)O)[C@@H](C)CC)[C@@H](C)CC [C9, 10] (H-IALILEPI[Sar]QERAA-OH)
- MPO inhibition, in words (myeloperoxidase (MPO)): does not possess
- MPO inhibition (myeloperoxidase (MPO); [5]): 0
- complement inhibition overall, in words [1]: most, but not all, complement inhibition was lost
- inhibition of ABO incompatible hemolysis, in words [1]: minimal inhibition of ABO hemolysis
- ABO C’ inhibition [1, 5]: 0
- total antioxidant capacity, in words [2]: no antioxidant capacity
- Total Antioxidant Cap [2, 5]: 0
- inhibition of classical pathway hemolysis, in words [3]: minimal activity
- Classical C’ inhibition [3, 5]: 0
- inhibition of heme ring degradation, in words (MPO heme ring): showed inhibition of heme ring degradation
- inhibition of NETosis (free DNA, PicoGreen), in words [4]: only slight inhibition relative to the negative control
